This passage reports Activity results from ChEMBL document CHEMBL1817590, “Hippocampal and cortical neuronal growth mediated by the small molecule natural product clovanemagnolol” (2011).

Assay [1] concerns the target T1, Choline O-acetyltransferase (Rattus norvegicus) (UniProt P32738).
T1 sequence (whole entry): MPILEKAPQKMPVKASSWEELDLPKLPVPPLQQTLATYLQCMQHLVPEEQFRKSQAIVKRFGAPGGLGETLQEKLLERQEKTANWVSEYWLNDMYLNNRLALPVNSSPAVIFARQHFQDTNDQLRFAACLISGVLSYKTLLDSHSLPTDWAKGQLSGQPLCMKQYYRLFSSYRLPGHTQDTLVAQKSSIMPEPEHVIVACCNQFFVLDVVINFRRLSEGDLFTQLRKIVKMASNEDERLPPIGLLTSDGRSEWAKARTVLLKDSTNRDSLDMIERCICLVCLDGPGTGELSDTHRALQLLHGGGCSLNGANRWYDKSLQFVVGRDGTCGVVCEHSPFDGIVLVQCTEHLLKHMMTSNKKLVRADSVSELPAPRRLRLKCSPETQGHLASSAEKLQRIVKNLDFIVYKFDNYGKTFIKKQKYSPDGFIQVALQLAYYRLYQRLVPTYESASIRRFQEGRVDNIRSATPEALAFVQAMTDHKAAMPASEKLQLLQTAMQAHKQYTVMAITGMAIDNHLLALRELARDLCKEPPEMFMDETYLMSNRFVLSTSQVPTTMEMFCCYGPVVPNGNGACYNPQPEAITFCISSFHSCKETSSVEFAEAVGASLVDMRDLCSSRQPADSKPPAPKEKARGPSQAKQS
In words: Increase in choline acetyltransferase activity in rat brain neurons at […] after 10 days relative to control. Type of assay: tissue-based.

Assay [2] in a line: Neurotrophic activity in isolated embryonic mouse brain Hippocampal neurons assessed as induction of neurite outgrowth at 0.01 uM after 48 hrs relative to control. The assay is classed as functional, Hippocampal neuron.
Assay [3] in a line: Neurotrophic activity in isolated embryonic mouse brain Hippocampal neurons assessed as induction of neurite outgrowth at 0.1 uM after 48 hrs relative to control. The assay is classed as functional, Hippocampal neuron.
A short description of assay [4]: Neurotrophic activity in isolated embryonic mouse brain Hippocampal neurons assessed as induction of neurite outgrowth at 1 uM after 48 hrs relative to control. The assay is classed as functional, Hippocampal neuron.
The test system of assay [5] is Hippocampal neuron. In words: Neurotrophic activity in isolated embryonic mouse brain Hippocampal neurons assessed as induction of neurite outgrowth after 48 hrs relative to control. Type of assay: functional.
The test system of assay [6] is Cortical neurone. In words: Neurotrophic activity in isolated embryonic mouse embryonic Cortical neurons assessed as induction of neurite outgrowth at 0.01 uM after 48 hrs relative to control. Type of assay: functional.
Assay [7] concerns Cortical neurone. The assay is described as follows: Neurotrophic activity in isolated embryonic mouse embryonic Cortical neurons assessed as induction of neurite outgrowth at 0.1 uM after 48 hrs relative to control. The assay is classed as functional.
The test system of assay [8] is Cortical neurone. In words: Neurotrophic activity in isolated embryonic mouse embryonic Cortical neurons assessed as induction of neurite outgrowth at 1 uM after 48 hrs relative to control. Type of assay: functional.
Assay [9] deals with Cortical neurone. In words: Neurotrophic activity in isolated embryonic mouse embryonic Cortical neurons assessed as induction of neurite outgrowth after 48 hrs relative to control. The assay is classed as functional.

As for `C=CCc1ccc(O)c(-c2cc(CC=C)ccc2O[C@H]2CC(C)(C)[C@@H]3CC[C@]4(C)C[C@]23CC[C@H]4O)c1` [CLOVANEMAGNOLOL], the Activity was 142% in assay [1]; 62.8% in assay [2]; 26.5% in assay [3]; -83.9% in [4]; “Dose-dependent effect” in assay [5]; 44.2% in assay [6]. In addition, the Activity was 22.7% in [7], -80.7% in [8] and “Dose-dependent effect” in assay [9].

Consider `C=CCc1ccc(O)c(-c2cc(CC=C)ccc2O)c1` [MAGNOLOL], for which the Activity in [2] is 50.1%; in assay [3], 23.9%; in assay [4] it was -69%; in assay [5], “Dose-dependent effect”; in assay [6], 20.2%; in assay [7], 55.6%. The Activity in assay [8] is -74.6%; in [9] it was “Dose-dependent effect”.
